{"source": "patent US10849872B2", "about": "“Methods and compositions for treating obesity, preventing weight gain, promoting weight loss, promoting slimming, or treating or preventing the development of diabetes” (NAN Global, LLC, priority 2014, dated 2020)", "key": {"[1]": {"tested_on": "C57BL/6 mice", "assay": "Feeding experiments of C57BL/6 mice, oral tyrphostin 9", "format": "in vivo", "procedure": "(§1) A preclinical toxicity study of tyrphostin 9 was conducted in human cell lines (brain, liver, lung, intestine, kidney, and muscle), followed by feeding experiments of C57BL/6 mice. In the in vivo mice experiments, the mice were orally administered tyrphostin 9 during 15 days, at a dose of 0.175 mg/kg/day."}, "[2]": {"tested_on": "differentiation of keratocytes into adipocytes", "assay": "Inhibition of differentiation into adipocytes", "format": "cell-based"}, "[3]": {"tested_on": "human cell lines (brain, liver, lung, intestine, kidney, and muscle)", "assay": "Preclinical toxicity study in human cell lines", "format": "cell-based", "details": "all examined human cell lines: brain", "procedure": "as §1"}, "[4]": {"tested_on": "human neutrophils", "details": "well known properties; cited from earlier work"}, "[5]": {"details": "well known properties; cited from earlier work"}, "[6]": {"tested_on": "obese subjects", "assay": "Synergistic effects of tyrphostin 9 and L-carnitine tartrate in obese subjects", "format": "in vivo, human", "details": "Group A: two capsules per day of 20 mg tyrphostin 9, oral", "procedure": "Obese subjects with similar BMI and whose weight had remained essentially constant during the past 30 days were recruited, instructed not to modify their eating habits, food intake, or lifestyle, and randomly and blindly assigned to either treatment Group A, Group B, or Group C.\nSubjects in Group A were administered (orally) two capsules per day, each containing 20 mg Tyrphostin 9 plus inert excipient; subjects in Group B were administered (orally) four capsules per day, each containing 5 mg tyrphostin 9 and about 700 mg L-carnitine tartrate; subjects in Group C were administered—in the morning—two capsules, each containing 20 mg Tyrphostin 9 plus inert excipient, and—at night time—four capsules, each containing about 700 mg of L-carnitine tartrate.\nAfter a two week washout period, a new experiment was initiated. Subjects in Group A were orally administered two capsules per day, each containing 20 mg Tyrphostin 9 plus inert excipient, subjects in Group B were given eight capsules per day, each containing 5 mg Tyrphostin 9 plus about 700 mg L-carnitine tartrate, and subjects in Group C were administered—in the morning—two capsules, each containing 20 mg tyrphostin 9 plus inert excipient and, at night, eight capsules each containing about 700 mg L-carnitine tartrate."}, "[7]": {"tested_on": "overweight, obese, and/or diabetic subjects", "assay": "Preliminary trial in overweight, obese, and/or diabetic subjects", "format": "in vivo, human", "procedure": "A preliminary trial involving 75 overweight, obese, and/or diabetic subjects of both sexes was carried out over a twenty-month period. Exclusion criteria were: (1) recent significant weight gain, (2) a compromised thermoregulatory system, (3) pregnancy, (4) renal or hepatic failure, (5) use of illegal drugs or drugs that impair the body's heat dissipation mechanisms, (6) serious dysrhythmias, (7) unstable angina pectoris, (8) congestive heart failure, (9) severe cerebrovascular disease, (10) use of a pacemaker, (11) severe pulmonary impairment, (12) anemia, (13) Parkinson's disease, (14) body weight of less than 35 kilograms, (15) extensive psoriasis, (16) repeated episodes of hypoglycemia, (17) cystic fibrosis, (18) spinal cord injury, (19) a hereditary muscle disease, (20) chronic or recurrent venous thrombosis, (21) untreated hyperthyroidism, (22) exercise- or heat-induced angioedema, (23) seizure disorders, (24) schizophrenia, and (25) hypocalcemia.\nMedications that reduce sweating, decrease vasodilatation, decrease cardiac output, or induce hypothalamic depression were not taken prior to, during, and immediately after treatment.\nObese participants, aged 16-72, were administered orally one or more hard gelatin capsules per day, each containing 20 mg of active ingredient (i.e., tyrphostin 9) and microcrystalline cellulose. They were instructed not to modify their food intake or to start a course of exercise. […] Afterwards, different dosing schedules were imposed, with refractory individuals being administered two or three capsules per day (i.e., 40 or 60 mg tyrphostin 9 per day), whereas only one capsule per day was administered to all others, who consequently received 20 mg tyrphostin 9 per day throughout the trial.\nParticipants were also instructed to prevent dehydration by drinking plenty of water and to replenish electrolytes by taking both potassium and magnesium supplements or V-8 Juice or Gatorade. Those receiving two capsules per day were asked to take them at the same time during weeks two and three and then to switch to one in the morning and one at night during weeks four and five. Participants receiving 40 mg tyrphostin 9 per day reported that sweating/body temperature peaked either during night time or day time, depending on whether the two capsules were taken in the morning or at night. […] Obese participants lost on average 4 kg per month, with cumulative weight losses of up to 48 kg.\nDiabetic subjects (mostly obese and all presenting Type 2 diabetes mellitus) were similarly treated."}, "[8]": {"assay": "Shelf life of synthesised tyrphostin 9", "format": "physicochemical", "details": "at 25-35° C.", "procedure": "This procedure yields about 800 g (about 95% yield) of a light-yellow microcrystalline solid that melts at 141-142° C. (uncorrected), presents UV absorption maxima at 247 nm and 365 nm and has an Rf value of 0.65 (using benzene as eluant and Merck's TLC silica gel 60 F254 plastic-backed sheets), with only one spot being observed. The mixed melting point of this compound and authentic tyrphostin 9 (acquired from Cayman Chemical) was also 141-142° C. (uncorrected), and its spectroscopic and chromatographic properties were identical to those of the authentic product. This compound is stable, with a shelf life of over 1 year at 25-35° C.; if necessary it may be recrystallized from ethanol."}}, "data": [{"smiles": "CC(C)(C)c1cc(C=C(C#N)C#N)cc(C(C)(C)C)c1O", "note": "[tyrphostin 9]", "values": [{"measurement": "toxicity or inflammation in treated mice", "setting": "[1]; 0.175 mg/kg/day during 15 days, histochemical and behavioral criteria", "result": "no evidence of toxicity or inflammation"}, {"measurement": "adipocyte dimensions", "setting": "[1]; concomitant with visceral lipid transport", "result": "reduction"}, {"measurement": "effect on chow intake", "setting": "[1]; lean mice", "result": "no such effect"}, {"measurement": "apoptosis induction, obese versus lean mice", "setting": "[1]; mouse, in vivo", "result": "more evident in obese mice than in lean mice"}, {"measurement": "glycogen storage in hepatocytes", "setting": "[1]; mouse, in vivo", "result": "promotes"}, {"measurement": "visceral lipid transport from adipocytes", "setting": "[1]; mouse, in vivo", "result": "promotes"}, {"measurement": "chow intake curtailed", "setting": "[1]; obese mice grown on a high-fat diet, oral 0.175 mg/kg/day, 15 days", "result": "about 50%"}, {"measurement": "adipocyte apoptosis mediated by caspase-3", "setting": "[1]; to a greater extent than taurosporine", "result": "promotes"}, {"measurement": "differentiation of keratocytes into adipocytes", "setting": "[2]", "result": "inhibits"}, {"measurement": "toxicity in human cell lines", "setting": "[3]", "result": "low"}, {"measurement": "TNF-induced respiratory burst of human neutrophils", "setting": "[4]", "result": "inhibits"}, {"measurement": "toxicity (in vitro and in vivo)", "setting": "[5]", "result": "very low toxicity"}, {"measurement": "weight loss after 15 days", "setting": "[6]", "result": "about 2 kg"}, {"measurement": "sweating/heat sensation, two capsules simultaneously versus one in the morning and one at night", "setting": "[7]; 40 mg per day, weeks two and three simultaneous, weeks four and five split", "result": "more intense during weeks two and three"}, {"measurement": "slimming (waist circumference and other body measurements)", "setting": "[7]; all participants, end of treatment", "result": "significant reductions in waist circumference"}, {"measurement": "blood glucose level", "setting": "[7]; diabetic subjects (Type 2 diabetes mellitus, mostly obese)", "result": "significant decrease"}, {"measurement": "sweating / body temperature reported by participants", "setting": "[7]; end of first week, one 20 mg capsule per day, oral", "result": "most of them reported sweating copiously and/or noticing a distinct increase in body temperature"}, {"measurement": "sweating / heat sensation reported by participants", "setting": "[7]; end of trial, 20, 40 or 60 mg per day, all participants", "result": "sweating copiously and/or experienced an increased heat sensation"}, {"measurement": "adverse effects", "setting": "[7]; human, in vivo", "result": "no adverse effects were reported"}, {"measurement": "muscle mass loss", "setting": "[7]; human, in vivo", "result": "negligible"}, {"measurement": "rebound effect", "setting": "[7]; human, in vivo", "result": "no “rebound effect” was observed"}, {"measurement": "tolerability of treatment", "setting": "[7]; human, in vivo", "result": "very well tolerated"}, {"measurement": "blood lipid values", "setting": "[7]; obese and diabetic subjects", "result": "lower blood lipid values"}, {"measurement": "cumulative weight losses", "setting": "[7]; obese participants", "result": "up to 48 kg"}, {"measurement": "average weight loss", "setting": "[7]; obese participants, 20-60 mg per day oral", "result": 4, "unit": "kg per month"}, {"measurement": "shelf life", "setting": "[8]", "result": "over 1 year"}]}]}
